Columns and labels:
[1] = target: T1, Protein arginine N-methyltransferase 9 (Homo sapiens, UniProt Q6P2P2); assay: Selectivity interaction (Scintillation proximity assays) EUB0000230b PRMT9
T1 sequence (Q6P2P2 whole entry): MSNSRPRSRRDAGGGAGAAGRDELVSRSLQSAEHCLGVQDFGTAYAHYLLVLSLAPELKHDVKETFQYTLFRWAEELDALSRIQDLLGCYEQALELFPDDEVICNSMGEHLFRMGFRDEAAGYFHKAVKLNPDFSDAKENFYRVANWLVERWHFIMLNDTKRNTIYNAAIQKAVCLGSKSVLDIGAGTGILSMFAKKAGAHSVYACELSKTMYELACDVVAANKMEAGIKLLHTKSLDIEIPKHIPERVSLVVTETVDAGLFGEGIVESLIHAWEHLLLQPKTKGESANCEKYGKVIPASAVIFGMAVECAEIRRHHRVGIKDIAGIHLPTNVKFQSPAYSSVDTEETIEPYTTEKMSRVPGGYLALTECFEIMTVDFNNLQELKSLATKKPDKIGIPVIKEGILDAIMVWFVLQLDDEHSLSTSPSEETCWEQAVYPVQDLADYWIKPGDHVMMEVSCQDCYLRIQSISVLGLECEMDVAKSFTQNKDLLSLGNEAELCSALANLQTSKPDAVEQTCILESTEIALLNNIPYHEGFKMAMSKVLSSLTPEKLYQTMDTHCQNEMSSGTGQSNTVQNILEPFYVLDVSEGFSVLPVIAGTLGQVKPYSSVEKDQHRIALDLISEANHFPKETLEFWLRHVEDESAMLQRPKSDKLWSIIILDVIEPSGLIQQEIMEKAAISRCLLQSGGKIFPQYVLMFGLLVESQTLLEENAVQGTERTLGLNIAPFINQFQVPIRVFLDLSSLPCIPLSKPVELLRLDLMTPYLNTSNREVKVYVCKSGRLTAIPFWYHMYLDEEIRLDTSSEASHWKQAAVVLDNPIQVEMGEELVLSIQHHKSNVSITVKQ

[2] = target: Serine/threonine-protein kinase 16 (Homo sapiens, UniProt O75716); assay: Selectivity interaction (KinomeScan (DiscoverX)) EUB0001550a STK16; settings: at 1 µM
[3] = target: T2, Serine/threonine-protein kinase BRSK2 (Homo sapiens) (UniProt Q8IWQ3); settings: at 10 µM
T2 sequence (whole entry): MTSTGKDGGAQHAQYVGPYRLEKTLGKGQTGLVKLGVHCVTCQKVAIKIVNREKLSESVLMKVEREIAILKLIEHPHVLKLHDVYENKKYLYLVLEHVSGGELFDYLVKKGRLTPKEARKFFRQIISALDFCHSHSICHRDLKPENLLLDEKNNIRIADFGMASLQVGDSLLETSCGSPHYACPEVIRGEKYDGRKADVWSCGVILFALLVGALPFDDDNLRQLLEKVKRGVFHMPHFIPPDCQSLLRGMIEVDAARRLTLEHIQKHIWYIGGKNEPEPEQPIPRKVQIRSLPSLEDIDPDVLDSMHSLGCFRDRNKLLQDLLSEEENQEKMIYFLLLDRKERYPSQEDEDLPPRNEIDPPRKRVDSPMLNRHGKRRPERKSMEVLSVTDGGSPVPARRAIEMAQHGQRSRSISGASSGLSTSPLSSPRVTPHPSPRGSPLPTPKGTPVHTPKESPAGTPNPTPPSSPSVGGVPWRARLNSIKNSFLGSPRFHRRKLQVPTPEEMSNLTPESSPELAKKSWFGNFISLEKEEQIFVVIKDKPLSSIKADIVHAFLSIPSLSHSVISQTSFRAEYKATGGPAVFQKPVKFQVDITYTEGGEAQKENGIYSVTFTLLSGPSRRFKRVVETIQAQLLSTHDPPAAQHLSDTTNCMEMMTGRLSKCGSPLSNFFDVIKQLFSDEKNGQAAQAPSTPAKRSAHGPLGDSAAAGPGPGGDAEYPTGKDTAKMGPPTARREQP

[4] = target: T3, NUAK family SNF1-like kinase 1 (Homo sapiens) (UniProt O60285); assay: Selectivity interaction (KinomeScan (DiscoverX)) EUB0000045b NUAK1
T3 sequence (whole entry): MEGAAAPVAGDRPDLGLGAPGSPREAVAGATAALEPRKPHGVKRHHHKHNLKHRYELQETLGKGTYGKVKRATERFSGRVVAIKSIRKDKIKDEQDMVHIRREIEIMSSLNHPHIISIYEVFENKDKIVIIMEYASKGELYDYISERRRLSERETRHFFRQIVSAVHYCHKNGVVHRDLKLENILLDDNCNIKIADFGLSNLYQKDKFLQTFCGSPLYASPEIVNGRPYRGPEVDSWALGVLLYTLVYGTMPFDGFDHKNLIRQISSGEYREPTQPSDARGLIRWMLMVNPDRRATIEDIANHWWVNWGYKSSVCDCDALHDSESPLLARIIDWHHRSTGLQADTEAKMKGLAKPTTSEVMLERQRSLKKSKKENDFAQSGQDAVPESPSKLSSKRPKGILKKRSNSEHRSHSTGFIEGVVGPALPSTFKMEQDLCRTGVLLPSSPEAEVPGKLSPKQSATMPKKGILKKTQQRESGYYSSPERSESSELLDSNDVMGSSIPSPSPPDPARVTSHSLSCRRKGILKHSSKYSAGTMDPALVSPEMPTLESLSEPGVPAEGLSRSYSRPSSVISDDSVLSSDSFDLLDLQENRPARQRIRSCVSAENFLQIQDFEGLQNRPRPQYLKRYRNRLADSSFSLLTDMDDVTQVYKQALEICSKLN

[5] = target: Ribosomal protein S6 kinase alpha-3 (Homo sapiens, UniProt P51812); assay: Selectivity interaction (KinomeScan (DiscoverX)) EUB0000045b RPS6KA3
Chain of Ribosomal protein S6 kinase alpha-3 (P51812 whole entry): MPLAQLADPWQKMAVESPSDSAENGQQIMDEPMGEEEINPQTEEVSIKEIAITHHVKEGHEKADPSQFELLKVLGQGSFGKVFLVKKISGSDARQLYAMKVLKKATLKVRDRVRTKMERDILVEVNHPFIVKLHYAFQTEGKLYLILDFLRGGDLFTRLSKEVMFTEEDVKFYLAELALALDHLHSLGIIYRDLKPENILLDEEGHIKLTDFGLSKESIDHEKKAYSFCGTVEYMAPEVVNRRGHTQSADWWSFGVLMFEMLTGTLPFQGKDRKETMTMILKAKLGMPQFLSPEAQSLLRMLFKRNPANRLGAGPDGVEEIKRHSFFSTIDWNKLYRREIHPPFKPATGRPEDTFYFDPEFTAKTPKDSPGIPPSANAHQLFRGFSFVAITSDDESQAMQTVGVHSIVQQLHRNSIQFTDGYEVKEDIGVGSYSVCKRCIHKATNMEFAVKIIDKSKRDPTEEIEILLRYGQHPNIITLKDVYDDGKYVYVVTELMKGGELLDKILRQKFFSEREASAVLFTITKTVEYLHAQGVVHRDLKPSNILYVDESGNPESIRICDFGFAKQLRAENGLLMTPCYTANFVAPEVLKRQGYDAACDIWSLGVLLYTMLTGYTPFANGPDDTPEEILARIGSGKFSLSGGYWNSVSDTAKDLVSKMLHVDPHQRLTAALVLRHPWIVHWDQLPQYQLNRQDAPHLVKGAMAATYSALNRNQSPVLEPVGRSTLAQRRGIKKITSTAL

Chain of Serine/threonine-protein kinase 16 (O75716 whole entry): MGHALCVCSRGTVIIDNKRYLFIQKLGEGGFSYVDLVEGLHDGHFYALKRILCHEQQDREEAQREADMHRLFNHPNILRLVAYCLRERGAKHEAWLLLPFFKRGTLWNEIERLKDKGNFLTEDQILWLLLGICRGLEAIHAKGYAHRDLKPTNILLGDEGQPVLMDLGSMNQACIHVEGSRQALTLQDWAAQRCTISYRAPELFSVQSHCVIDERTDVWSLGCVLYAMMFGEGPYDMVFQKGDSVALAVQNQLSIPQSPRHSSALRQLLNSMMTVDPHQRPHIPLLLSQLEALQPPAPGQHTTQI

## CNCCN1CCC(c2cc(CN(C)C(=O)c3cccc(Oc4ccccc4)c3)ccn2)CC1
[1]
  IC50: > 10 µM

## CN(C)CC#Cc1ccc2[nH]c3c(c2c1)-c1nc(N)ncc1CCC3
[2]
  % of control: 14%

## COCC(=O)NC/C=C/c1ccc2ncnc(Nc3ccc(Oc4ccc(C)nc4)c(C)c3)c2c1 [CP-724714]
[3]
  % of control: 100%

## C=CC(=O)Nc1cc(-n2c(=O)ccc3cnc4ccc(-c5ccc(NS(C)(=O)=O)cc5)cc4c32)ccc1C
[4]; at 1 µM
  % of control: 100%
[4]; at 10 µM
  % of control: 76%
[5]; at 1 µM
  % of control: 81%
[5]; at 10 µM
  % of control: 100%

From ChEMBL document CHEMBL5465560, “Selectivity Literature for EUbOPEN Chemogenomic Library” (2024)
